# According to patent US12544392B2, “Treatment of adenovirus infection or disease associated with adenovirus infection” (SymBio Pharmaceuticals Limited, priority 2023, dated 2026):
# “Also recorded” adds a separate entry of the source.
# Key:
# adenovirus (AdV) [1] = assay: Analysis of AdV content in stool of patients by quantitative PCR; type: in vivo, human; conditions: for patients in whom AdV content in stool was reduced to ND during the study period: ND = not detected
# Description: In the clinical study of Example 1, the AdV contents in the stools of patients were examined. […] In the figure, D means detected, ND means not detected, and NP means not performed. A quantitative PCR method was used to analyze AdV contents.
# [2] = Analysis of lymphocytes: absolute lymphocyte count of a patient in cohort 3; type: in vivo, human; conditions: patient 110-05 in cohort 3 (0.4 mg/kg IV twice weekly)
# Description: In the clinical study of Example 1, the absolute lymphocyte count in the plasma of the patient 110-05 in cohort 3 was examined.
# [3] = Human clinical study: BCV-related adverse events (NCI CTCAE version 5.0); type: in vivo
# Protocol: The study duration is at least 9 weeks, based on a screening period of 1 week, a treatment period of at least 4 weeks, and post-treatment follow-up period of 30 days. In the screening, after informed consent has been obtained from the patients, a screening evaluation is conducted to determine eligibility for the study. On the first day of the first week of the treatment period, patients are assigned a dose based on the applicable cohort (see the section 1.1.3 Cohorts 1-3 above). The duration of treatment is a minimum of 4 weeks and a maximum of 14 weeks, and termination is based on the treatment stopping criteria as described below. For patients who, at the physician's discretion, are assessed as being at high risk for AdV infection/recurrence of disease, the treatment period may be extended for up to 10 weeks, even after the 4-week treatment period is completed, if the AdV is not detected by the two most recent consecutive assays with an interval of 3 days at least. All patients are followed up for 30 days after the last dosing. Adverse events is evaluated according to the National Cancer Institute Common Terminology Criteria for Adverse Events (NCI CTCAE) version 5.0 (grade 1-5). Based on the results of the review of safety data from cohort 1, a decision is made whether to initiate cohort 2. Likewise, the decision to initiate cohort 3 is based on the results of the review of safety data from cohort 2. Enrollment in a new cohort is terminated immediately if grade 3 or higher adverse events are observed in more than 25% of all subjects in the previous cohort.
# adenovirus (AdV) [4] = assay: Human clinical study on treatment of AdV infectious disease: viral load of AdV in plasma by real-time qPCR; type: in vivo; conditions: for time for the levels of viral load to reach below the LOD: overall
# Protocol: A human clinical study on the treatment of adenovirus (AdV) infectious disease was conducted according to the following procedure.
# Patients aged 2 months or older who have asymptomatic AdV infection or AdV disease, have an underlying immunocompromised state, and have AdV viremia at a high level, including hematopoietic stem cell transplant recipients before the immune reconstitution by the graft cells is achieved, organ transplant recipients on medication with an immunosuppressant, and patients with immunodeficiency syndrome (patients with 10,000 or more copies/ml in a sample, or patients with 1,000 or more copies/ml in two samples while the second viral load is greater than the first viral load).
# The brincidofovir (BCV) infusion is a sterile aqueous solution containing 10 mg/mL BCV.
# • Product name: Brincidofovir (BCV) • Dosage form: Solution for infusion • Unit dose: 10 mg/mL (1 mL per vial) • Route of administration: Intravenous (IV) infusion • Physical description: Clear, colorless solution in a sterile glass vial • Storage: Refrigerated (2-8° C.) • Dosing: Continuous IV drip infusion administered over a period of 2 hours twice weekly (on Days 1 and 4) 1.1.3 Dose • Cohort 1:0.2 mg/kg (if body weight≥50 kg, 10 mg/dose), twice weekly • Cohort 2:0.3 mg/kg (if body weight≥50 kg, 15 mg/dose), twice weekly • Cohort 3:0.4 mg/kg (if body weight≥50 kg, 20 mg/dose), twice weekly 1.1.4 Drug Administration
# The dose of BCV 10 mg/mL solution for infusion is prepared based on the patient's body weight.
# Preparation: Using a sterile syringe and needle, transfer 1 mL of IV BCV solution from one vial into a 100-mL glucose 5% IV bag to make a diluted dosing solution. For more than 10 mg/dose, prepare one additional diluted dosing solution in the same procedure mentioned above. Gently invert the bag at least 5 times to mix. Note: No vigorous shaking of the solution in a vial or the diluted dosing solution in a bag.
# Administer the appropriate volume of diluted dosing solution based on the patient's body weight. Each dose is administered intravenously at a constant rate over 2 hours. Upon completion of the administration, the IV line is flushed with glucose 5% or dextrose 5% to ensure the IV line has been cleared of all active drug. If required per institutional practice, the flush of glucose 5% or dextrose 5% may be followed by a flush with normal saline. Diluted dosing solution should be prepared at the time of use in principle and should not be prepared the day before.
# Subjects 101-12 of cohort 2, and 101-15, 101-18 and 110-06 of cohort 3 took cyclosporine, an immunosuppressive drug, during the treatment period (duration of treatment) of intravenous BCV. Prior PK studies in healthy subjects have shown a significant increase in plasma BCV exposure with concomitant intravenous infusion of BCV and cyclosporine. […] In view of the above, for the above patients taking cyclosporine, any of the doses indicated in 1.1.3 (cohorts 1-3) above is reduced to 60% for administration. Note that when cyclosporine is administered as BID (twice daily) oral or injectable form, the administration is conducted with an interval of 2 hours after the completion of intravenous BCV. In the case of continuous infusion of cyclosporine for 24 hours, no interval is needed.
# The study duration is at least 9 weeks, based on a screening period of 1 week, a treatment period of at least 4 weeks, and post-treatment follow-up period of 30 days. In the screening, after informed consent has been obtained from the patients, a screening evaluation is conducted to determine eligibility for the study. On the first day of the first week of the treatment period, patients are assigned a dose based on the applicable cohort (see the section 1.1.3 Cohorts 1-3 above). The duration of treatment is a minimum of 4 weeks and a maximum of 14 weeks, and termination is based on the treatment stopping criteria as described below. […]
# [5] = cohort 2: 0.3 mg/kg IV twice weekly
# [6] = cohort 3: 0.4 mg/kg IV twice weekly
# [7] = cohort 1: 0.2 mg/kg IV twice weekly
# [8] = cohort 3: 0.4 mg/kg IV twice weekly, of 10 cases
structure (smiles),measurement,setting,value
"CCCCCCCCCCCCCCCCOCCCOP(=O)(O)CO[C@H](CO)Cn1ccc(N)nc1=O [BCV, [(2S)-1-(4-amino-2-oxopyrimidin-1-yl)-3-hydroxypropan-2-yl]oxymethyl-(3-hexadecoxypropoxy)phosphinic acid]",patients in whom AdV content in stool was reduced to ND during the study period,adenovirus (AdV) [1]; [5],2 of 9
same,cases reduced to ND in which AdV was detected in stool in the following week,"adenovirus (AdV) [1]; cohort 2: 0.3 mg/kg IV twice weekly, of the two cases",one
same,patients in whom AdV content in stool was reduced to ND during the study period,adenovirus (AdV) [1]; [6],5 of 8
same,number of lymphocytes (absolute lymphocyte count),[2],tended to increase
same,"BCV-related adverse event, grade (relatedness)","[3]; cohort 1 (0.2 mg/kg IV twice weekly), patient 109-01, 0.2 mg/kg",elevated aspartate transaminase (AST)—grade 1 (probably); also recorded: elevated alanine transaminase (ALT)—grade 1 (probably); also recorded: elevated lactate dehydrogenase (LDH)—grade 1 (possibly)
same,"BCV-related adverse event, grade (relatedness)","[3]; cohort 1 (0.2 mg/kg IV twice weekly), patient 110-01",diarrhea—grade 2 (possibly)
same,Grade 3 adverse events (number),[3]; [7],0
same,"BCV-related adverse event, grade (relatedness)","[3]; cohort 2 (0.3 mg/kg IV twice weekly), patient 101-09",diarrhea—grade 3 (possibly)
same,"BCV-related adverse event, grade (relatedness)","[3]; cohort 2 (0.3 mg/kg IV twice weekly), patient 101-14",hypertransaminasemia—grade 3 (possibly)
same,"BCV-related adverse event, grade (relatedness)","[3]; cohort 2 (0.3 mg/kg IV twice weekly), patient 109-03",nausea—grade 1 (possibly)
same,Grade 3 adverse events (number),[3]; [5],2
same,"BCV-related adverse event, grade (relatedness)","[3]; cohort 3 (0.4 mg/kg IV twice weekly), patient 102-02, 0.4 mg/kg",increased ALT—grade 3 (possibly); also recorded: increased AST—grade 3 (possibly)
same,"BCV-related adverse event, grade (relatedness)","[3]; cohort 3 (0.4 mg/kg IV twice weekly), patient 109-04, 0.4 mg/kg",feeling of a racing heart—grade 1 (possibly); also recorded: nausea—grade 1 (possibly)
same,Grade 3 adverse events (number),[3]; [6],1
same,patients in whom the levels of viral load of AdV reached below the LOD,"adenovirus (AdV) [4]; cohort 1: 0.2 mg/kg (10 mg/dose if body weight ≥50 kg) IV twice weekly, plasma, LOD 25 copies/ml",two
same,cases with relapse among those that reached below the LOD,adenovirus (AdV) [4]; [7],One
same,patients who died,adenovirus (AdV) [4]; [7],one
same,patients in whom the levels of viral load of AdV reached below the LOD,"adenovirus (AdV) [4]; cohort 2: 0.3 mg/kg (15 mg/dose if body weight ≥50 kg) IV twice weekly, plasma, LOD 25 copies/ml",5 patients
same,patients who died,adenovirus (AdV) [4]; [5],one
same,time for the levels of viral load to reach below the LOD,"adenovirus (AdV) [4]; cohort 2: 0.3 mg/kg IV twice weekly, the 5 cases",longer time
same,cases in which the levels of viral load of AdV reached below the LOD,"adenovirus (AdV) [4]; cohort 3: 0.4 mg/kg (20 mg/dose if body weight ≥50 kg) IV twice weekly, plasma, LOD 25 copies/ml, all cases",10 cases
same,relapse or death,adenovirus (AdV) [4]; [6],No patient relapsed or died
same,patients whose levels of viral load reached below the LOD within 4 weeks,adenovirus (AdV) [4]; [8],8 patients
same,remaining patients whose levels of viral load reached below the LOD at Week 5 and 6,adenovirus (AdV) [4]; [8],2 patients
same,time for the levels of viral load to reach below the LOD,"adenovirus (AdV) [4]; cohort 3: 0.4 mg/kg IV twice weekly, the 10 cases",shorter time
same,time at which the viral load of AdV was reduced to a level below the LOD,adenovirus (AdV) [4]; patient 110-05 in cohort 3 (0.4 mg/kg IV twice weekly),3 Week
